Article PMC5177629, “Selective Estrogen Receptor Modulators: Cannabinoid Receptor Inverse Agonists with Differential CB1 and CB2 Selectivity” (Frontiers in Pharmacology, 2016)
“Also recorded” adds a separate entry of the source. Marks after values point to notes of the source that are not given here.

What was measured:
[1] = target: T1, human cannabinoid type-1 receptors (hCB1) (Homo sapiens, UniProt P21554); test: Antagonism of CP-55,940 inhibition of adenylyl cyclase, intact CHO-hCB1 cells; assay type: cell-based
T1 construct: host or cells: CHO cells (CHO-hCB1), membranes or intact cells
Protocol: (§1) Briefly, cells cultured between passages 4 and 15 were seeded into 24-well plates at a concentration of 6.5 million cells per plate and incubated overnight in a humidified incubator maintained at 37°C and 5% CO2. Growth media was removed the next day and replaced with media containing […] [^3H]adenine, 0.9g/L NaCl, and 0.5 mM isobutyl-methyl-xanthine (IBMX) for 2–3 h. Radioactive media was then removed and each well treated with 0.5 ml of varying concentrations of SERM compounds in a Krebs-Ringer-HEPES solution (10 mM HEPES, 110 mM NaCl, 25 mM Glucose, 55 mM Sucrose, 5 mM KCl, 1 mM MgCl2, 1.8 mM CaCl2, pH 7.4) containing 0.5 mM IBMX and 10 μM forskolin. Plates were then floated in a 37°C water bath for 15 min before reactions were terminated by addition of 50 μL of 2.2 N HCl to each well.
(§2) Reactions were then terminated by adding 50 μL of 2.2 N HCl to each well. [^3H]cAMP was isolated using alumina column chromatography and radioactivity quantified following addition of 10 mls of scintiverseTM BD cocktail scintillation fluid (Fisher Scientific, Pittsburg, PA, USA) by liquid scintillation spectrophotometry (Tri Carb 2100 TR Liquid Scintillation Analyzer, Packard Instrument Company, Meriden, CT, USA).
(§3) Statistical analyses were conducted by utilizing GraphPad Prism v6.0g (GraphPad Software, Inc.; San Diego, CA, USA). IC50 values from competition receptor binding curves were derived by non-linear regression. […] Non-linear regression analysis of concentration-effect curves was also used to determine potency (ED50 or IC50) and efficacy (Emax or Imax) for modulation of GTPγS and adenylyl cyclase activity, respectively. All IC50, EC50, Ki, and Kb values were converted to pEC50, pIC50, pKi, and pKb values in order to permit use of parametric statistical analyses. For all experiments comparing three or more values, an one-way ANOVA was employed, followed by Dunnett’s or Tukey’s post hoc tests. For comparisons of two values, an unpaired t-test was utilized. To determine significant radioligand displacement or modulation of G-protein activity compared to basal levels, a one-sample t-test was employed.
(§4) IC50 and Kb values were converted to pIC50 and pKb values (pIC50 = -Log[IC50] or pKb = -Log[Kb], respectively) to allow use of parametric statistics for comparison.

[2] = target: T1, human cannabinoid type-1 receptors (hCB1); test: Competition receptor binding with [3H]CP-55,940, CHO-hCB1 membranes; conditions: single 1 μM concentration, 0.2 nM [3H]CP-55,940, CHO-hCB1
Protocol: (§5) In short, pellets were thawed on ice, combined in a 40 ml glass Dounce homogenizer and homogenized in 20 ml of cold buffer (50 mM HEPES at pH 7.4, 3 mM MgCl2, and 1 mM EGTA) using 10 strokes. Homogenates were then centrifuged at 40,000 × g for 10 min at 4°C. After discarding the supernatant, pellets were homogenized and centrifuged twice more. Final pellets were re-suspended in ice-cold 50 mM HEPES, pH 7.4, aliquoted and stored at -80°C for future use. Protein concentration was determined the same day, prior to freezing, using BCA^TM Protein Assay (Thermo Fisher Scientific, Waltham, MA, USA).
The final volume of each sample was 1 ml, containing 50 mM Tris-HCl buffer (pH 7.4), 0.05% bovine serum albumin, 5 mM MgCl2, increasing concentrations of non-radioactive competing SERM ligands, and either 100 μg of CHO-hCB1 or 50 μg of CHO-hCB2 membrane homogenates. […] Each sample condition was performed in triplicate and allowed to reach equilibrium at room temperature for 90 min. Reactions were terminated by rapid vacuum filtration through Whatman GF/B glass fiber filters (Brandel, Inc.), followed by four 4 ml washes of ice-cold filtration buffer (50 mM Tris at pH 7.4 and 0.05% BSA). Filter punches of individual samples were placed in scintillation vials containing 4 mls of ScintiverseTM BD cocktail scintillation fluid (Fisher Scientific, Pittsburg, PA, USA). Final counts were determined using liquid scintillation spectrophotometry (Tri Carb 2100 TR Liquid Scintillation Analyzer, Packard Instrument Company, Meriden, CT, USA) after overnight incubation.
as §3
(§6) For initial comparison of potential SERM binding to CBRs, 14 commercially available compounds from 5 structurally distinct classes (Figure 1) were subjected to a radioligand binding screen (Figure 2).

[3] = target: T2, human cannabinoid type-2 receptors (hCB2) (Homo sapiens, UniProt P34972); test: Competition receptor binding with [3H]CP-55,940, CHO-hCB2 membranes; conditions: single 1 μM concentration, 0.2 nM [3H]CP-55,940, CHO-hCB2
T2 construct: expressed in transfected cells; host or cells: CHO cells (CHO-hCB2), membranes or intact cells
Protocol: as §5, with “Membrane homogenates were prepared for competition receptor binding and [^35S]GTPγS binding studies by using pellets previously frozen of CHO-hCB1 or CHO-hCB2 cells as described in ([Franks et al., 2014]). In” for “In”
The final volume of each sample was 1 ml, containing 50 mM Tris-HCl buffer (pH 7.4), 0.05% bovine serum albumin, 5 mM MgCl2, increasing concentrations of non-radioactive competing SERM ligands, and either 100 μg of CHO-hCB1 or 50 μg of CHO-hCB2 membrane homogenates. Non-specific binding was defined by radioactivity remaining in the presence of 1 μM of the non-radioactive CB1/CB2 agonist WIN-55,212-2. Each sample condition was performed in triplicate and allowed to reach equilibrium at room temperature for 90 min. Reactions were terminated by rapid vacuum filtration through Whatman GF/B glass fiber filters (Brandel, Inc.), followed by four 4 ml washes of ice-cold filtration buffer (50 mM Tris at pH 7.4 and 0.05% BSA). Filter punches of individual samples were placed in scintillation vials containing 4 mls of ScintiverseTM BD cocktail scintillation fluid (Fisher Scientific, Pittsburg, PA, USA). Final counts were determined using liquid scintillation spectrophotometry (Tri Carb 2100 TR Liquid Scintillation Analyzer, Packard Instrument Company, Meriden, CT, USA) after overnight incubation.
Statistical analyses were conducted by utilizing GraphPad Prism v6.0g (GraphPad Software, Inc.; San Diego, CA, USA). IC50 values from competition receptor binding curves were derived by non-linear regression. Experimental IC50 values were converted to Ki values (a measure of receptor affinity) by using the Cheng–Prusoff equation ([Cheng and Prusoff, 1973]). Non-linear regression analysis of concentration-effect curves was also used to determine potency (ED50 or IC50) and efficacy (Emax or Imax) for modulation of GTPγS and adenylyl cyclase activity, respectively. All IC50, EC50, Ki, and Kb values were converted to pEC50, pIC50, pKi, and pKb values in order to permit use of parametric statistical analyses. For all experiments comparing three or more values, an one-way ANOVA was employed, followed by Dunnett’s or Tukey’s post hoc tests. For comparisons of two values, an unpaired t-test was utilized. To determine significant radioligand displacement or modulation of G-protein activity compared to basal levels, a one-sample t-test was employed.
as §6

[4] = target: T2, human cannabinoid type-2 receptors (hCB2); test: Antagonism of CP-55,940 inhibition of adenylyl cyclase, intact CHO-hCB2 cells; assay type: cell-based
Protocol: as §1, §2, §3, §4

[5] = target: T2, human cannabinoid type-2 receptors (hCB2); test: Adenylyl cyclase assay (forskolin-stimulated cAMP), intact CHO-hCB2 cells; assay type: cell-based
Protocol: as §1, §3
To provide a second measure of intrinsic activity, the ability of SERMs to modulate intracellular levels of cAMP in intact cells was examined (Figure 6). CBRs couple to Gi/Go-proteins, and thus cannabinoid agonists inhibit activity of the downstream intracellular effector adenylyl cyclase, reducing intracellular cAMP levels.

[6] = target: T2, human cannabinoid type-2 receptors (hCB2); test: [35S]GTPγS binding, CHO-hCB2 membranes; assay type: biochemical; conditions: for intrinsic activity at hCB2Rs (partial or full inverse agonist): [35S]GTPγS binding, CHO-hCB2, 10 μM, compared with AM-630
Protocol: as §5
(§7) Non-specific binding was defined by radioactivity remaining in the presence of 10 μM of non-radioactive GTPγS. All reactions were incubated for 30 min at 30°C, terminated by filtration through Whatman GF/B glass fiber filters (Brandel, Inc.) and followed by four 4 ml washes of ice cold filtration buffer (50 mM HEPES, pH 7.4) containing 0.1% bovine serum albumin. Filter punches of individual samples were placed in scintillation vials containing 4 mls of ScintiverseTM BD cocktail scintillation fluid (Fisher Scientific, Pittsburg, PA, USA). Final counts were determined using liquid scintillation spectrophotometry (Tri Carb 2100 TR Liquid Scintillation Analyzer, Packard Instrument Company, Meriden, CT, USA) after overnight incubation.
as §3
(§8) CBRs are coupled to Gi/Go type G-proteins. Therefore, binding of agonists to CBRs leads to G-protein activation, antagonists produce no effect, and inverse agonists reduce basal G-protein activity produced by constitutively active receptors. SERMs were screened by examining the ability of a single receptor saturating concentration (10 μM) to modulate G-protein activity in membranes prepared from CHO-hCB1 and CHO-hCB2 cells. G-protein activation was quantified using employing [^35S]GTPγS, a non-hydrolyzable analog of GTP, that irreversibly binds to the G-proteins when activated.

[7] = target: T1, human cannabinoid type-1 receptors (hCB1); test: [35S]GTPγS binding, CHO-hCB1 membranes; assay type: biochemical; conditions: [35S]GTPγS binding, CHO-hCB1, compared with AM-251
Protocol: as §5, §7, §3, §8

T2 sequence (P34972 whole entry): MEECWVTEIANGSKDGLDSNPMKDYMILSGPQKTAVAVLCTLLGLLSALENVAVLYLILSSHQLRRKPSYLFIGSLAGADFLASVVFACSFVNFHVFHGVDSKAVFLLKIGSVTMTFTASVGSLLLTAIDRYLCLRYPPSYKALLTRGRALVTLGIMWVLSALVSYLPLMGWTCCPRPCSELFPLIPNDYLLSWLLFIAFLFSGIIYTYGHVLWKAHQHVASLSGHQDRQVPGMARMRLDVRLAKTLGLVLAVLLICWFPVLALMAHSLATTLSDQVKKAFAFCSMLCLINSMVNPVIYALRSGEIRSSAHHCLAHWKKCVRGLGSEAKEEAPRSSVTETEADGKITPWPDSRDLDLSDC
T1 sequence (P21554 whole entry): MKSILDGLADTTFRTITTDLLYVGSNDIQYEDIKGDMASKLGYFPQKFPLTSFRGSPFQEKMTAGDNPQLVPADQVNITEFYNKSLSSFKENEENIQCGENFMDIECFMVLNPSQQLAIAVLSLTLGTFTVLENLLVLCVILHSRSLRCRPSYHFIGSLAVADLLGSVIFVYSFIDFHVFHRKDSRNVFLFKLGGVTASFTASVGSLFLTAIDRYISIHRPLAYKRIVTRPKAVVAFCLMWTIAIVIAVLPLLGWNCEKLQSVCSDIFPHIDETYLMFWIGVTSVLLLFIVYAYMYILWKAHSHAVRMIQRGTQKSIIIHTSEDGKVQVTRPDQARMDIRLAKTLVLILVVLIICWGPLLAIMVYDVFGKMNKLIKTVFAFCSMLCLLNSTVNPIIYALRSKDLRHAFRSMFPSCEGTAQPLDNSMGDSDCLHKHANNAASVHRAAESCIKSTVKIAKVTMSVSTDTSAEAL

For `Cc1c(C(=O)NN2CCOCC2)nn(-c2ccc(Cl)cc2Cl)c1-c1ccc(I)cc1` [AM-281], the “fold decrease in potency of CP-55,940, CHO-hCB1” value ([1]; AM-281 1 μM pre-incubation) was 16 fold, the “IMAX of CP-55,940 after pre-incubation with the drug” value ([1]; CHO-hCB1 cells, pre-incubation 30 min: OSP, NAF, BAZ 10 μM, RAL 2 μM, AM-281 1 μM) was 35.7 ± 0.9% and the Kb ([1]; calculated from shift of CP-55,940 curve, intact CHO-hCB1 cells, read-out: Kb (antagonist dissociation constant), CHO-hCB1) was 0.155 µM. For the same molecule, the “pKb, CHO-hCB1” value ([1]; intact CHO-hCB1 cells, mean ± SEM) was 6.810 ± 0.061^a.
With `CC1=C(c2ccc(O)cc2)[C@H](c2ccc(OCCN3CCCCC3)cc2)Oc2cc(O)ccc21` [acolbifene] the “displacement of [3H]CP-55,940 from hCB1Rs” value (“displacement … from hCB1Rs” for short) [2] was “fails to displace; also recorded: did not produce any displacement” and the “displacement of [3H]CP-55,940 from hCB2Rs” value [3] was “fails to displace; also recorded: did not produce any displacement”.
`COc1ccc(C(=O)c2c(C)n(CCN3CCOCC3)c3cc(I)ccc23)cc1` [AM-630] was tested, and the “fold parallel shift-to-the-right of CP-55,940 concentration-effect curve, CHO-hCB2” value ([4]; AM-630 1 μM pre-incubation) was 33 fold, the “IMAX of CP-55,940 after pre-incubation with the drug” value ([4]; CHO-hCB2 cells, pre-incubation 30 min: OSP, NAF 10 μM, RAL, BAZ 2 μM, AM-630 1 μM) was 31.7 ± 0.3% and the Kb ([4]; calculated from shift of CP-55,940 curve, intact CHO-hCB2 cells, read-out: Kb (antagonist dissociation constant), CHO-hCB2) was 0.0554 µM. For the same molecule, the “pKb, CHO-hCB2” value ([4]; intact CHO-hCB2 cells, mean ± SEM) was 7.26 ± .064^b, the “EMAX, Intracellular [3H]cAMP” value ([5]; elevation of cAMP) was 214 ± 6.5^b % and the EC50 ([5]; increase of cAMP, 10 μM forskolin, read-out: EC50, Intracellular [3H]cAMP) was 0.398 µM. For the same molecule, the “pEC50, Intracellular [3H]cAMP” value ([5]; mean ± SEM) was 6.40 ± 0.096^c and the “reduction of G-protein activity, hCB2Rs” value ([6]; CHO-hCB2 membranes, 10 μM) was 34%.
4-hydroxy-tamoxifen [4OH-TX] was tested, and the “displacement … from hCB1Rs” value [2] was “approximately 50%” and the “intrinsic activity at CB1Rs (partial or full inverse agonist)” value [7] was “partial”.
For `CC/C(=C(\c1ccc(O)cc1)c1ccc(OCCNC)cc1)c1ccccc1` [ENDX, endoxifen], the “displacement … from hCB1Rs” value [2] was “approximately 50%”.
`CC(C)N1CCN(c2ccc(C(=O)c3c(-c4ccc(O)cc4)sc4cc(O)ccc34)cc2)CC1` [Y-134] was tested, and the “intrinsic activity at CB1Rs (partial or full inverse agonist)” value [7] was “partial” and the “intrinsic activity at hCB2Rs (partial or full inverse agonist)” value [6] was “partial inverse agonist activity”.
In the case of `CN(C)CCOc1ccc(/C(=C(/CCCl)c2ccccc2)c2ccc(O)cc2)cc1` [4OH-TOR, 4-hydroxy-toremifene], the “displacement … from hCB1Rs” value [2] is reported as “approximately 50%”.
In the case of `Oc1ccc2c(c1)CC[C@H](c1ccccc1)[C@@H]2c1ccc(OCCN2CCCC2)cc1` [LAS, lasofoxifene], the “intrinsic activity at hCB2Rs (partial or full inverse agonist)” value [6] is reported as “partial inverse agonist activity”.
